Laboratory results published in patent US20020010210A1, “PHARMACEUTICAL PREPARATION AND METHOD FOR TREATING CANCER” (priority 1997, published 2002).

Experiments:
[1] = system: spontaneous breast cancer rat cells (SST-2); test: Lung metastasis of implanted SST-2 cells in SHR rats (Example 3); assay type: in vivo; details: 35 days after implantation; for Number of Metastasis Colonies (average), Peroral Administration: 1 mg/rat perorally from day of implantation to day 34; for Number of Metastasis Colonies (average), Subcutaneous Injection: 1 mg/rat subcutaneous injection from day of implantation to day 34
Method: 1×100,000 spontaneous breast cancer rat cells (SST-2) were subcutaneously implanted into the back of a rat (SHR rat) (5 rats per group) suffering from spontaneous hypertension. After 35 days, the rats were sacrificed, and the lung weight and the number of colonies formed were measured to examine the degree of metastasis of SST-2 to the lung. The compounds shown in Tables 3 and 4 each was administered perorally or through subcutaneous injection in a dose of 1 mg/rat over the period from the day of implantation to 34 days after implantation. The number of colonies formed was compared with that in the control group not subjected to any treatment, to examine metastasis to the lung.

[2] = system: bovine aortic endothelial BAE-2 cells; test: Intracellular ascorbic acid cumulative amount in BAE-2 cells (Example 2); assay type: cell-based; details: 5 μM in culturing medium, cultured 20 hours
Method: About 6×10^5 bovine aortic endothelial BAE-2 cells (available from Hiroshima Prefecture University) were sowed on a 60 mmφ plate and cultured in a minimum essential culturing medium containing 20% dialyzed bovine fetus serum (available from Moregate) for 2 hours. After displacing with the same culturing medium containing 5 μM (in the case of magnesium ascorbic acid-2-phosphate, 50 μM) of ascorbic acid or a derivative thereof, the cells were further cultured for 20 hours.

[3] = system: normal human adult mamma epidermis keratinocyte; test: Intracellular ascorbic acid cumulative amount in keratinocytes (Example 1); assay type: cell-based; details: addition amount 2 μM, cultured 20 hours; difference to culture without addition
Method: About 6×10^5 cells of a normal human adult mamma epidermis keratinocyte (available from Kurashiki Boseki KK) were sowed on a 60 mm plate and cultured in a culturing medium (manufactured by Krashiki Boseki KK) for the increase of serum-free epidermis keratinocyte for 2 hours. After displacing with the same culturing medium having added thereto from 2 to 50 μM of ascorbic acid or a derivative thereof, the cells were further cultured for 20 hours. The cells were collected by trypsin treatment and the number of cells was counted using a Coulter Counter Model DN (trade name, manufactured by Coulter Electronics). The cells thus collected were washed with Hank's equilibrium salt solution, pulverized in an ultrasonic homgenizer, filtered through a Mol-cut II (UFP1LCC) (trade name, produced by Nippon Milipore KK), analyzed by HPLC using Shodex ODSpak F411A column (trade name, produced by Showa Denko KK), and the amount of ascorbic acid and derivatives thereof were measured to determine the intracellular cumulative amount.
As a control, culturing was performed in the same manner as above except for not adding ascorbic acid or a derivative thereof, and the amount of intracellular ascorbic acid was quantitatively determined.

Row | Compound | Intracellular Cumulative Amount [2] [Pmole/cell] | Intracellular Cumulative Amount [3] [Pmole/cell] | Number of Metastasis Colonies (average), Peroral Administration [1] | Number of Metastasis Colonies (average), Subcutaneous Injection [1]
1 | CCCCCCCCCCCC(=O)OC[C@H](O)[C@H]1OC(=O)C(OP(=O)(O)O)=C1O [L-Ascorbic acid 2-phosphate-6-laurate] | 0.0042 | – | 48.0 | 26.8
2 | CCCCCCCC/C=C\CCCCCCCC(=O)OC[C@H](O)[C@H]1OC(=O)C(OP(=O)(O)O)=C1O [L-Ascorbic acid 2-phosphate-6-oleate] | 0.0055 | – | 29.4 | 2.8
3 | CCCCCCCCCCCCCCCC(=O)OC[C@H](O)[C@H]1OC(=O)C(OP(=O)(O)O)=C1O [L-Ascorbic acid 2-phosphate-6-palmitate] | 0.0072 | – | 34.2 | 2.4
4 | CCCCCCCCCCCCCCCCCC(=O)OC[C@H](O)[C@H]1OC(=O)C(OP(=O)(O)O)=C1O [L-Ascorbic acid 2-phosphate-6-stearate] | 0.0034 | – | 14.2 | 8.2

More lines, main results first:

Row | Intracellular Cumulative Amount [2] [Pmole/cell] | Intracellular Cumulative Amount [3] [Pmole/cell] | Compound | Number of Metastasis Colonies (average), Peroral Administration [1] | Number of Metastasis Colonies (average), Subcutaneous Injection [1]
5 | 0.0012 | – | O=C1O[C@H]([C@@H]2COC(c3ccccc3)O2)C(O)=C1O (stereo partly drawn) [L-Ascorbic acid-5,6-O-benzylidene] | 85.8 | 84.2
6 | 0.0007 | – | O=C1OC(C2COC(c3cccc([N+](=O)[O-])c3)O2)C([O-])=C1O.[Na+] [Sodium 5,6-(3-nitro)benzylidene-L-ascorbate] | 88.6 | 84.2
7 | 0.0070 | 0.0033 | Magnesium L-ascorbic acid 2-phosphate-6-laurate | – | –
8 | 0.0068 | 0.0040 | Sodium L-ascorbic acid 2-phosphate-6-palmitate | 30.6 | 1.6
